In data set [1] the test system is PFF induced HEK293 TREX α-syn A53T cells. As to the kind of experiment: Cytotoxicity by visual inspection of treated cells. It counts as cell-based, human. The settings on record: 1 μM. Here is the method: (§1) Targeted degradation of sarkosyl insoluble (SI) α-synuclein via exemplary bifunctional compounds was assessed by MJFF-14-6-4-2 conformation specific ELISA following treatment of PFF induced A53T α-synuclein overexpressing HEK293 cells with 1 μM exemplary compound compared to DMSO vehicle control. Degradation activity of the exemplary compounds of Table 2 is expressed as % DMSO control. […] However, the effect of bifunctional targeting degraders, shown in FIG. 5, required the intact E3 ligase binding domain.
(§2) Trex293 (doxycycline inducible) cells stably expressing human α-SYN A53T (monoclonal) were plated in poly-d-lysine coated T-75 tissue culture flasks (4.5×10e6 cells/flask) in DMEM with 10% tet-free FBS, 10 μg/ml blasticidin, and 400 μg/ml zeocin. After an overnight incubation, the cells were induced to express α-SYN by treatment with 1 μg/ml doxycycline (Dox) and exemplary bifunctional compound. After a 24 hour dox induction, the medium on the cells was changed to Opti-MEM followed by treatment with α-SYN pre-formed fibrils** (PFFs)(5 μg/flask) pre-complexed with Lipofectamine 2000 transfection reagent for 4 hours. After PFF treatment, the medium was changed back to DMEM with the supplements described above and exemplary bifunctional compound for 48 hours.
To assess targeted degradation of sarkosyl insoluble α-synuclein, exemplary bifunctional compounds designed to bind to oligomeric α-synuclein were tested at 1 μM in PFF induced HEK293 TREX α-syn A53T cells.

The target of data set [2] is T1, sarkosyl insoluble (SI) α-synuclein (human α-SYN A53T) (Homo sapiens, UniProt P37840, A53T).
T1 construct: expressed in transfected cells
In words: MJFF-14-6-4-2 conformation specific ELISA of sarkosyl insoluble α-synuclein after compound treatment. The class given is cell-based. Conditions: 1 μM compound; protein remaining relative to DMSO control; PFF induced A53T α-synuclein overexpressing HEK293 cells; read-out: Protein Degradation at 1 μM. As for the experimental part: as §1, §2
Cell pellets were harvested from each flask using 0.25% trypsin followed by spinning at 500×g for 5 minutes. Each pellet was resuspended in 1 ml cold buffer H [Buffer H-10 mM Tris, 1 mM EGTA, 0.8M NaCl, 10% sucrose, pH7.4 containing 1× protease and phosphatase inhibitors] containing protease and phosphatase inhibitors. The resuspended pellets were incubated on ice for 20 minutes followed by centrifugation at 27,200×g for 20 minutes at 4° C. The supernatants were adjusted to 1% sarkosyl (Sigma) and 1% 2-mercaptoethanol followed by incubation for 1 hour at 37° C. on an orbital shaker set to 400 rpm. The samples were then spun at 150,000×g for 35 minutes at room temperature. The supernatant was removed and saved as the soluble fraction and the insoluble pellet was resuspended in 25 μl tris-buffered saline (TBS). Protein concentrations were determined by NanoDrop, and normalized protein concentrations were analyzed by WES capillary electrophoresis as well as an α-SYN oligomer ELISA.
Recombinant human α-SYN was purchased from Proteos. 1 mg aliquots were supplied at 10 mg/ml in 10 mM Tris, 50 mM NaCl, pH7.6. The aliquot was thawed on ice followed by centrifugation at 4° C. for 10 minutes at 12,000×g to pellet any insoluble material. The supernatant was removed and quantitated on a NanoDrop (A280) using Beer's Law (ε=5960 M-1 cm-1). The concentration was adjusted to 5 mg/ml in PBS followed by vortexing for 3 seconds to mix contents. The mixture was incubated in an orbital shaker set to 37° C. at 1,000 rpm for 7 days followed by aliquoting into individual use vials. Prior to addition to cells, an aliquot was thawed at room temperature, then diluted to 1 mg/ml with phosphate-buffered saline (PBS) followed by sonication for 1 minute with a probe sonicator (output 1; 90% duty cycle) in a chem hood.
Coming Costar high bind black well plates were coated with MJFR 14-6-4-2 (Abcam) at 1 μg/ml for 1 hour at 37° C. followed by washing with 1×TBS+0.1% tween-20 (TBS-T) then blocking with 3% bovine serum albumin (BSA) in TBS. After re-washing, samples were added after dilution in diluent (1% BSA/TBS-T). Non-sonicated PFF was used to generate a standard curve. The plates were incubated with sample overnight at 4° C. with shaking. The following day alkaline phosphatase (AP) conjugated MJFR 14-6-4-2 was added to the plate without washing followed by incubation at room temperature for 1 hour with shaking or rocking. The plates were then re-washed and substrate (CDP star alkaline phosphatase detection reagent) was added followed by a 30 minute incubation at room temperature. The plate was read on a luminescence plate reader. The counts were log transformed and read off the standard curve. […]
Background: In an ELISA, binding on a coated surface is turned into a signal by an enzyme label.

Where only a bound is given, the exact number is not on record here.

`COc1ccc2nc(-c3ccc(N4CC(OC5CCN(CCCCCOc6ccc7c(c6)C(=O)N(C6CCC(=O)NC6=O)C7=O)CC5)C4)cc3)sc2c1` (stereo not shown) [Exemplary Compound 25, 2-(2,6-dioxopiperidin-3-yl)-5-([5-[4-([1-[4-(6-methoxy-1,3-benzothiazol-2-yl)phenyl]azetidin-3-yl]oxy)piperidin-1-yl]pentyl]oxy)-2,3-dihydro-1H-isoindole-1,3-dione]: the entries for the “Cytotoxicity at the concentration tested” value in data set [1] and in data set [1] (listed as 25) were “cytotoxicity” and “cytotoxic”, respectively. Besides, the remaining activity at 1 µM in data set [2] was > 120%. Turning to `Cc1ncsc1-c1ccc([C@H](C)NC(=O)[C@@H]2C[C@@H](O)CN2C(=O)[C@@H](NC(=O)COCCOCCOc2ccc(CN3C(=O)C(=CC=Cc4ccc([N+](=O)[O-])cc4)c4ccccc43)cc2)C(C)(C)C)cc1` (single isomer, unassigned) [Exemplary Compound 6], the “Cytotoxicity at the concentration tested” value in data set [1] is recorded as “without any visual impact to cell health”. For the compound `O=C1CCC(N2C(=O)c3ccc(OCCOCCOCCOCCOc4ccc5c(c4)Sc4cc([N+](=O)[O-])ccc4N5)cc3C2=O)C(=O)N1` (stereo not shown) [Exemplary Compound 13, 2-(2,6-dioxo-3-piperidyl)-5-[2-[2-[2-[2-[(7-nitro-10H-phenothiazin-3-yl)oxy]ethoxy]ethoxy]ethoxy]ethoxy]isoindoline-1,3-dione], the results for the “Cytotoxicity at the concentration tested” value in data set [1] and in data set [1] (listed as 13) were “cytotoxicity” and “cytotoxic”, respectively. For the compound `CNc1ccc(-c2nc3ccc(OCCOCCOCCOCCOCCOCCOCC(=O)N[C@H](C(=O)N4C[C@H](O)C[C@H]4C(=O)N[C@@H](C)c4ccc(-c5scnc5C)cc4)C(C)(C)C)cc3s2)cc1` [Exemplary Compound 5, (2S,4R)-1-((S)-2-(tert-butyl)-23-((2-(4-(methylamino)phenyl)benzo[d]thiazol-6-yl)oxy)-4-oxo-6,9,12,15,18,21-hexaoxa-3-azatricosanoyl)-4-hydroxy-N-((S)-1-(4-(4-methylthiazol-5-yl)phenyl)ethyl)pyrrolidine-2-carboxamide], the “Cytotoxicity at the concentration tested” value in data set [1] is listed as “without any visual impact to cell health”. The remaining activity at 1 µM in data set [2] was < 35%. As for `Cc1ncsc1-c1ccc([C@H](C)NC(=O)[C@@H]2C[C@@H](O)CN2C(=O)[C@@H](NC(=O)COCCOCCOCCOCCOCCOCCOc2ccc3c(c2)Sc2cc([N+](=O)[O-])ccc2N3)C(C)(C)C)cc1` [Exemplary Compound 12, (2S,4R)-1-((S)-2-(tert-butyl)-23-((7-nitro-10H-phenothiazin-3-yl)oxy)-4-oxo-6,9,12,15,18,21-hexaoxa-3-azatricosanoyl)-4-hydroxy-N-((S)-1-(4-(4-methylthiazol-5-yl)phenyl)ethyl)pyrrolidine-2-carboxamide], the results for the “Cytotoxicity at the concentration tested” value in data set [1] and in data set [1] (listed as 12) were “cytotoxicity” and “cytotoxic”, respectively. The remaining activity at 1 µM in data set [2] was > 120%. On to `CNc1ccc(-c2nc3ccc(OCCOCCOCCOCC(=O)N[C@H](C(=O)N4C[C@H](O)C[C@H]4C(=O)N[C@@H](C)c4ccc(-c5scnc5C)cc4)C(C)(C)C)cc3s2)cc1` [Exemplary Compound 2, (2S,4R)-1-((S)-2-(tert-butyl)-14-((2-(4-(methylamino)phenyl)benzo[d]thiazol-6-yl)oxy)-4-oxo-6,9,12-trioxa-3-azatetradecanoyl)-4-hydroxy-N—((S)-1-(4-(4-methylthiazol-5-yl)phenyl)ethyl)pyrrolidine-2-carboxamide], for which the “Cytotoxicity at the concentration tested” value in data set [1] is listed as “without any visual impact to cell health”. Moreover, in data set [2], the remaining activity at 1 µM fell in the range of 35 to 70%. Consider `Cc1ncsc1-c1ccc([C@H](C)NC(=O)[C@@H]2C[C@@H](O)CN2C(=O)[C@@H](NC(=O)COCCOCCOCCOc2ccc3c(c2)Sc2cc([N+](=O)[O-])ccc2N3)C(C)(C)C)cc1` [Exemplary Compound 9, (2S,4R)-1-((S)-2-(tert-butyl)-14-((7-nitro-10H-phenothiazin-3-yl)oxy)-4-oxo-6,9,12-trioxa-3-azatetradecanoyl)-4-hydroxy-N-((S)-1-(4-(4-methylthiazol-5-yl)phenyl)ethyl)pyrrolidine-2-carboxamide], for which the “Cytotoxicity at the concentration tested” value in data set [1] is on record as “cytotoxicity”; in data set [1] (listed as 9) it was “cytotoxic”. The remaining activity at 1 µM in data set [2] is > 120%. For the compound `CNc1ccc(-c2nc3ccc(OCCOCCOCC(=O)N[C@H](C(=O)N4C[C@H](O)C[C@H]4C(=O)N[C@@H](C)c4ccc(-c5scnc5C)cc4)C(C)(C)C)cc3s2)cc1` [Exemplary Compound 1, (2S,4R)-1-[(2S)-3,3-dimethyl-2-[[2-[2-[2-[[2-[4-(methylamino)phenyl]-1,3-benzothiazol-6-yl]oxy]ethoxy]ethoxy]acetyl]amino]butanoyl]-4-hydroxy-N-[(1S)-1-[4-(4-methylthiazol-5-yl)phenyl]ethyl]pyrrolidine-2-carboxamide], in data set [2], the remaining activity at 1 µM is < 35%. Consider `COc1ccc2nc(-c3ccc(N4CC(OC5CCN(CCN6CCN(c7ccc8c(c7)C(=O)N(C7CCC(=O)NC7=O)C8=O)CC6)CC5)C4)cc3)sc2c1` (stereo not shown) [Exemplary Compound 26, 2-(2,6-dioxopiperidin-3-yl)-5-(4-[2-[4-([1-[4-(6-methoxy-1,3-benzothiazol-2-yl)phenyl]azetidin-3-yl]oxy)piperidin-1-yl]ethyl]piperazin-1-yl)-2,3-dihydro-1H-isoindole-1,3-dione], for which the remaining activity at 1 µM in data set [2] was 35 to 70%. Same read-out and setting: next, `CN(C)c1ccc(-c2nc3ccc(O[C@H]4C[C@H](OCCCN5CCN(c6ccc7c(c6)C(=O)N(C6CCC(=O)NC6=O)C7=O)CC5)C4)cc3s2)cc1` (stereo partly shown) [Exemplary Compound 24, 2-(2,6-dioxopiperidin-3-yl)-5-(4-[3-[(1r,3r)-3-([2-[4-(dimethylamino)phenyl]-1,3-benzothiazol-6-yl]oxy)cyclobutoxy]propyl]piperazin-1-yl)-2,3-dihydro-1H-isoindole-1,3-dione]: > 120%; `CNc1ccc(-c2nc3ccc(OCCOCCOCCOCCOCCOCC(=O)N[C@H](C(=O)N4C[C@H](O)C[C@H]4C(=O)N[C@@H](C)c4ccc(-c5scnc5C)cc4)C(C)(C)C)cc3s2)cc1` [Exemplary Compound 4, (2S,4R)-1-((S)-2-(tert-butyl)-20-((2-(4-(methylamino)phenyl)benzo[d]thiazol-6-yl)oxy)-4-oxo-6,9,12,15,18-pentaoxa-3-azaicosanoyl)-4-hydroxy-N-((S)-1-(4-(4-methylthiazol-5-yl)phenyl)ethyl)pyrrolidine-2-carboxamide]: < 35%. On the same count and under the same terms, the value for `O=C1CCC(N2C(=O)c3ccc(OCCOCCOCCOCCOCCOc4ccc5c(c4)Sc4cc([N+](=O)[O-])ccc4N5)cc3C2=O)C(=O)N1` (stereo not shown) [Exemplary Compound 14, 2-(2,6-dioxopiperidin-3-yl)-5-((14-((7-nitro-10H-phenothiazin-3-yl)oxy)-3,6,9,12-tetraoxatetradecyl)oxy) isoindoline-1,3-dione] was 35 to 70%. Turning to `CN(C)c1ccc2c(c1)Sc1cc(OCCOCCOCCOCCOCCOc3ccc4c(c3)C(=O)N(C3CCC(=O)NC3=O)C4=O)ccc1N2` (stereo not shown) [Exemplary Compound 21, 5-((14-((7-(dimethylamino)-10H-phenothiazin-3-yl)oxy)-3,6,9,12-tetraoxatetradecyl)oxy)-2-(2,6-dioxopiperidin-3-yl)isoindoline-1,3-dione], the remaining activity at 1 µM in data set [2] was 35 to 70%.

(Values after patent US12594264B2, “Modulators of alpha-synuclein proteolysis and associated methods of use” (Arvinas Operations, Inc., priority 2018, dated 2026).)
